Measured values reported in patent publication US6677473B1, “Plasminogen activator inhibitor antagonists” (Corvas International INC, priority 1999, dated 2004).

Molecular target: T1, Human recombinant PAI-1 (Homo sapiens, UniProt P05121)
T1 construct: made in house; host or cells: E. coli
Assay: Chromogenic assay for plasminogen activator inhibitor type-1 (PAI-1) antagonism (tPA / glu-plasminogen / Spectrozyme PL, OD405)
Format: biochemical
Conditions: determined by comparison with control reactions; assay variant (#1-#4) not given; read-out: IC50 for PAI antagonist activity
Method: PAI-1 antagonist assays were performed in a buffer containing Tris, 0.05 mol/L, pH 7.4, 100 mmol/L NaCl, 1 mmol/L EDTA, and 0.01% Tween 80. Human recombinant PAI-1 purified from E coli. and human recombinant tPA were diluted into this standard assay buffer at concentrations of approximately 500-600 ng/mL and 100 ng/mL, respectively. PAI-1 antagonists were dissolved first in DMSO at a concentration of approximately 5 mg/mL, and these solutions were then diluted into the standard reaction buffer to achieve a final compound concentration of 1 mg/mL. Native, purified human glu-plasminogen was purchased from Boehringer Mannheim and was supplied as a lyophilized powder, which was first reconstituted in sterile water to a concentration of 55 μmol/L and then diluted to a concentration of 0.825 μmol/L in standard assay buffer. The chromogenic substrate Spectrozyme PL (H—D-Norleucyl-hexahydrotyrosyl-lysine-p-nitroanilide, American Diagnostica) was prepared as a stock solution with a concentration of 2.5 mmol/L in sterile water. Human fibrin monomer (DESAFIB) was purchased from American Diagnostica and was supplied as a lyophilized powder, which was reconstituted in standard assay buffer at a concentration of 100 μg/mL.
The chromogenic assay utilized the reagents described above. Fresh reagent solutions were prepared prior to each assay. Assays were performed in individual wells of standard 96 well mocrotiter assay plates. Standard assays were prepared as follows:
The following reagents were combined:
The plate was agitated or the individual 25 μL mixtures were pipetted up and down once or twice to assure proper mixing of reagents. The resulting mixture was incubated 15 minutes at room temperature (approximately 21° C.).
The following was added to each reaction:
The microtiter assay plate was then placed into a Molecular Devices Thermomax or Spectromax Plate Reader, agitated to assure thorough mixing of reagents, and incubated at 37° C. The OD405 of each reaction mixture is measured every minute for 1 hour. Control reactions which lack PAI-1; PAI-1 and test compound; t-PA; or t-PA, PAI-1 and test compound were performed in each assay.
Assay #2 was performed exactly as assay #1 except that a 10 minute preincubation of the test compound and PAI-1 was performed at room temperature prior to the addition of t-PA.
Assay #3 was performed exactly as assay #1 except that a wide range of concentrations of each test compound, depending upon the potency of the individual compound, was used in the assay.
Assay #4 was performed exactly as assay #2 except that a wide range of concentrations of each test compound, depending upon the potency of the individual compound, was used in the assay.
The generated plasmin cleaved the chromogenic substrate, Spectrozyme PL, producing pNA (para-nitroaniline). The pNA was detected spectrophotometrically at 405 nm.
The degree of inhibition at various concentrations and/or the IC50 value for the compounds provided herein was determined by comparison with control reactions. The IC50 for PAI antagonist activity for each of the compounds specifically disclosed herein has been measured.

T1 sequence (P05121 24-402): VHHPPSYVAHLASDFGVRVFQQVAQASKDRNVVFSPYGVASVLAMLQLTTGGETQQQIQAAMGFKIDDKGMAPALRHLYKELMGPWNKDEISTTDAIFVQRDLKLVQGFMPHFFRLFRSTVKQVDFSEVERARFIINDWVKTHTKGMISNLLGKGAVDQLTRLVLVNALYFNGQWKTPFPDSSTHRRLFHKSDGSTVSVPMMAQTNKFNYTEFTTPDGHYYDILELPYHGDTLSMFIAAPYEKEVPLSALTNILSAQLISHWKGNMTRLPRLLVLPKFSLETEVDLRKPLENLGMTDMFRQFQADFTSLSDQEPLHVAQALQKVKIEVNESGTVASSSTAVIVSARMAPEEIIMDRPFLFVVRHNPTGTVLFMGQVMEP

IC50 [µM]	SMILES
< 10	O=C(O)c1cc(I)c(OCc2ccc(I)cc2)c(I)c1 [3,5-diiodo-4-(4-iodobenzyloxy)benzoic acid]
< 100	O=C(O)COc1c(I)cc(C(=O)c2cc(I)c(O)c(I)c2)cc1I [[4-(4-hydroxy-3,5-diiodobenzoyl)-2,6-diiodophenoxy]acetic acid]
< 10	O=C(c1cc(I)c(O)c(I)c1)c1cc(I)c(OCc2cccc(I)c2)c(I)c1 [[3,5-diiodo-4-(3-iodobenzyloxy)phenyl]-(4-hydroxy-3,5-diiodophenyl)methanone]
< 50	O=C(c1cc(I)c(O)c(I)c1)c1cc(I)c(O)c(I)c1 [bis(4-hydroxy-3,5-diiodophenyl)methanone]
< 10	O=C(O)CCc1cc(I)c(OCc2ccc(I)cc2)c(I)c1 [3-[3,5-diiodo-4-(4-iodobenzyloxy)phenyl]propionic acid]
< 50	Cc1ccccc1COc1c(I)cc(C(=O)O)cc1I [3,5-diiodo-4-(2-methylbenzyloxy)benzoic acid]
< 50	O=C(C(=O)c1cc(I)c(O)c(I)c1)c1cc(I)c(O)c(I)c1 [1,2-bis-(4-hydroxy-3,5-diiodophenyl)ethane-1,2-dione]
< 100	O=C(O)c1cc(I)c(OCc2c(F)cccc2F)c(I)c1 [4-(2,6-difluorobenzyloxy)-3,5-diiodobenzoic acid]
< 50	O=C(O)CCCCCCCCCCOc1c(I)cc(C(=O)O)cc1I [4-(10-carboxydecyloxy)-3,5-diiodobenzoic acid]
< 100	O=C(c1ccccc1)c1cc(I)c(O)c(I)c1 [(4-hydroxy-3,5-diiodophenyl)-phenyl-methanone]
